Test results reported in PubChem BioAssay AID1963866 (Molecular Pharmacology Branch, DTP, NCI, 2024).

System: PDC KRAS tumor spheroids with HUVEC/MSC, viability
Experiment: Anticancer human tumor 349418-098-R-PDC patient-derived lung adenocarcinoma cell line growth inhibition [KRAS2]
Conditions: for IC50: curve of first compound; for viability, T/C: stronger effect = lower value
Source text: Multicellular complex tumor spheroid response to RAS pathway inhibitors in combination with a targeted agents in patient-derived cell lines with oncogenic KRAS variants from multiple cancer types
A high-throughput screen of multi-cell type tumor spheroids was designed to identify active combinations of targeted small molecules and KRAS pathway inhibitors. Complex spheroids include a stromal component modeled by human endothelial cells (HUVEC) and fibroblasts modeled by human mesenchymal stem cells (MSCs). The concentration ranges selected for each drug and investigational agent were based upon clinically achievable concentrations if the clinical Cmax of the agent was known.
Compounds. The drugs and investigational agents: BI-3406 (NSC825286), BAY-293 (NSC824723), batoprotafib (TNO155; NSC825523), sotorasib (AMG 510; NSC818433), MRTX1257 (NSC819558), elimusertib (BAY 1895344; NSC800525), molibresib (GSK525762; NSC774829), temuterkib (LY3214996; NSC803410), venetoclax (NSC766270), alisertib (NSC759677), olaparib (NSC753686), talazoparib (NSC767125), erdafitinib (NSC781556), ipatasertib (NSC767898), cabozantinib (NSC761068), nintedanib (NSC756659), abemaciclib (NSC768073), docetaxel (NSC628503), trametinib (NSC758246), and sapanisertib (NSC764658) were obtained from the National Cancer Institute (NCI) Developmental Therapeutics Program Chemical Repository. The FDA-approved anticancer drug set is available from the Developmental Therapeutics Program. […] The stock solutions were prepared in dimethyl sulfoxide (DMSO, Sigma-Aldrich, St. Louis, MO, cat. D2650) at 800-fold the tested concentration and stored at -70 degrees C prior to their use. All drugs and investigational agents were tested over a range starting from a high concentration at or near the clinical Cmax and decreasing in half-log increments. If the clinical Cmax for an agent had not been determined, the highest concentration tested was 10 microM.
Cell Culture. All cells were maintained in an incubator at 37 degrees C and 5% CO2 with 95% humidity. The PDC lines were cultured according to standard operating procedures established by the NCI PDMR (https://pdmr.cancer.gov/sops/default.htm). Briefly, all PDCs were thawed and cultured in Matrigel-coated flasks prepared with a working solution of 1X Ham's F-12 nutrient mix, without supplementation (Invitrogen, Waltham, MA, cat. 11765054), 100 U/mL penicillin-streptomycin (Invitrogen, cat. 15140122), and 2.5% Matrigel (Corning Inc., Corning, NY, cat. 354248) for the first three passages. All PDCs were cultured in complete DMEM/F-12 media containing advanced DMEM/F-12 (Invitrogen, cat. 12634028), 4.9% defined fetal bovine serum, heat inactivated (HyClone Laboratories Inc., Logan, UT, cat. SH30070.03HI), 389 ng/mL hydrocortisone (Sigma-Aldrich, cat. H4001), 9.7 ng/mL human EGF recombinant protein (Invitrogen, cat. PHG0313), 23.4 microg/mL adenine (Sigma-Aldrich, cat. A2786), 97.3 U/mL penicillin-streptomycin (Invitrogen, cat. 15140122), 1.9 mM L-glutamine (Invitrogen, cat. 25030081), and 9.7 microM Y-27632 dihydrochloride (Tocris Bioscience, Bristol, United Kingdom, cat. 1254). The PDCs were cultured in complete DMEM/F12 media without 9.7 microM Y-27632 dihydrochloride for at least two passages prior to the screen. The established cell line HOP-62 was cultured in RPMI 1640 medium, HEPES (Invitrogen, cat. 22400105) with 10% defined fetal bovine serum (HyClone Laboratories Inc., cat. SH30070.03) and 2 mM L-glutamine (Invitrogen, cat. 25030081). The pooled donor HUVEC were cultured in endothelial cell growth medium 2 (PromoCell, Heidelberg, Germany, cat. C-22011) and the hMSC were cultured in mesenchymal stem cell growth medium 2 (PromoCell, cat. C-28009). For all experiments, HUVEC and hMSC were used at passages </=5, while the malignant cell lines were used at passages </=15. […]
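Also: spheroids exposed to compounds for seven days before readout.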

In the case of CC(=O)Nc1cccc(-n2c(=O)n(C3CC3)c(=O)c3c(Nc4ccc(I)cc4F)n(C)c(=O)c(C)c32)c1 + C=CC(=O)N1CCN(c2nc(=O)n(-c3c(C)ccnc3C(C)C)c3nc(-c4c(O)cccc4F)c(F)cc23)C(C)C1, the IC50 (second compound 0.1 µM) is reported as < 0.1 nM, the IC50 (second compound 0.316 µM) is reported as < 0.1 nM and the IC50 (second compound 1 µM) is reported as < 0.1 nM. The IC50 (second compound 3.16 µM) was < 0.1 nM, the IC50 (second compound 10 µM) was < 0.1 nM and the viability, T/C (second compound 0.1 µM, first compound 0.0001 µM) was 48.6%. For the same compound, the viability, T/C (second compound 0.1 µM, first compound 0.000316 µM) was 21.9%, the viability, T/C (second compound 0.1 µM, first compound 0.001 µM) was 20.4% and the viability, T/C (second compound 0.1 µM, first compound 0.00316 µM) was 17.6%. The viability, T/C (second compound 0.1 µM, first compound 0.01 µM) was 11%, the viability, T/C (second compound 0.1 µM, first compound 0.0316 µM) was 7.55% and the viability, T/C (second compound 0.316 µM, first compound 0.0001 µM) was 34.9%. For the same compound, the viability, T/C (second compound 0.316 µM, first compound 0.000316 µM) was 31.2%, the viability, T/C (second compound 0.316 µM, first compound 0.001 µM) was 25.3% and the viability, T/C (second compound 0.316 µM, first compound 0.00316 µM) was 19.1%. For the same compound, the viability, T/C (second compound 0.316 µM, first compound 0.01 µM) was 11.8%, the viability, T/C (second compound 0.316 µM, first compound 0.0316 µM) was 9.88% and the viability, T/C (second compound 1 µM, first compound 0.0001 µM) was 39.4%. For the same compound, the viability, T/C (second compound 1 µM, first compound 0.000316 µM) was 34.8%, the viability, T/C (second compound 1 µM, first compound 0.001 µM) was 23.4% and the viability, T/C (second compound 1 µM, first compound 0.00316 µM) was 19.3%. For the same compound, the viability, T/C (second compound 1 µM, first compound 0.01 µM) was 13.4%, the viability, T/C (second compound 1 µM, first compound 0.0316 µM) was 8.89% and the viability, T/C (second compound 3.16 µM, first compound 0.0001 µM) was 39.5%. It also gave a viability, T/C (second compound 3.16 µM, first compound 0.000316 µM) of 29%, a viability, T/C (second compound 3.16 µM, first compound 0.001 µM) of 22% and a viability, T/C (second compound 3.16 µM, first compound 0.00316 µM) of 20.9%. It also gave a viability, T/C (second compound 3.16 µM, first compound 0.01 µM) of 13%, a viability, T/C (second compound 3.16 µM, first compound 0.0316 µM) of 10% and a viability, T/C (second compound 10 µM, first compound 0.0001 µM) of 25.4%. For the same compound, the viability, T/C (second compound 10 µM, first compound 0.000316 µM) was 17.4%, the viability, T/C (second compound 10 µM, first compound 0.001 µM) was 18.2% and the viability, T/C (second compound 10 µM, first compound 0.00316 µM) was 15.9%. The viability, T/C (second compound 10 µM, first compound 0.01 µM) was 10.7% and the viability, T/C (second compound 10 µM, first compound 0.0316 µM) was 9.82%.
